We go through 19 compounds from PMC10614203, “Synthesis, Structure–Activity Relationships, Radiofluorination, and Biological Evaluation of [^18F]RM365, a Novel Radioligand for Imaging the Human Cannabinoid Receptor Type 2 (CB2R) in the Brain with PET” (Journal of Medicinal Chemistry, 2023).

One data set concerns CB2R. The conditions noted are these: cited from earlier work.
In another data set the target is T1, hCB2R(D80N) (Homo sapiens, UniProt P34972, D80N).
T1 construct: expressed in transfected cells; host or cells: neurons of the right striatum of male Wistar rats, transduced in vivo with the AAV2/7-CaMKII0.4-intron-hCB2R(D80N) vector
The arrangement: method as in earlier work. The conditions noted are these: same animal model, previously evaluated; ref 83 ([18F]LU14), 31 ([18F]LU13); cited from earlier work.

For a further data set, the target named is T2, hCB2R (Homo sapiens, UniProt P34972).
T2 construct: host or cells: CHO cells, stably transfected
As to the kind of experiment: Competitive radioligand binding assay, displacement of [3H]WIN55212-2 from homogenates of hCB2R-CHO cells. The following applies: for Ki: read-out: CB2R Ki; for CB2R binding affinity, in words: hCB2R, discussion of Table 1. As for the experimental part: (§1) The binding affinity of the herein described compounds toward the human CB2R was determined by a competitive radioligand binding assay according to the established in-house protocol using cell homogenates obtained from CHO cells stably transfected with hCB2R (hCB2R-CHO).[53],[73] For compounds binding with high affinity to hCB2R, the affinity toward CB1R was determined as well by radioligand displacement studies performed either with homogenates obtained from the mouse brain or hCB1R-CHO cells.
(§2) The binding affinities toward hCB1R and hCB2R were determined according to a previously published protocol.[22] In brief, membrane preparations obtained from CHO cell lines stably transfected with either human CB1R (hCB1R-CHO; obtained from Euroscreen, Gosselies, Belgium) or human CB2R (hCB2R-CHO; obtained from Paul L. Prather, Department of Pharmacology and Toxicology, College of Medicine, University of Arkansas for Medical Sciences, USA) were incubated with [^3H]SR141716A (1,554 GBq/mmol; PerkinElmer Life and Analytical Sciences, Rodgau, Germany; final concentration ∼2 nM) or [^3H]WIN55212-2 (6,438 GBq/mmol; PerkinElmer Life and Analytical Sciences, Rodgau, Germany; final concentration ∼3 nM) and the respective test compounds at different concentrations (final concentration 10^–5–10^–11 M) diluted from DMSO stock solutions (1% DMSO final concentration) in incubation buffer (50 mM TRIS-HCl, pH 7.4, supplemented with 0.1% bovine serum albumin, 5 mM MgCl2, and 1 mM EDTA) at rt for 90 min.
(§3) The nonspecific binding of the respective radioligand was determined by coincubation with CP55,940 (final concentration 10^–5 M). The normalized values of bound activity (% specific binding) were calculated and plotted vs the logarithm of the concentration of the respective test compound. The IC50 values of the resulting inhibition curves were estimated by nonlinear regression analysis (GraphPad Prism 2.01). To calculate the Ki, the equation of Cheng and Prusoff was used. For homologous competition experiments, Ki = KD.[38]

The target in the next data set is T3, hCB1R (Homo sapiens, UniProt P21554).
T3 construct: host or cells: CHO cells, stably transfected
As to the kind of experiment: Radioligand displacement assay, [3H]SR141716A from homogenates of hCB1R-CHO cells. The data set is classed as binding. Here is the method:
as §1, §2, §3

[1] abbreviates: Figure 1, ref 28 (DM102), 29, 30 (RoSMA-18-d6), 31 (LU13), 33 (LUZ5-d8).
[2] abbreviates: Figure 1, ref 28 (DM102), 29, 30 (RoSMA-18-d6), 31 (LU13), 33 (LUZ5-d8), read-out: KiCB2R.
Where [3] appears, read: enantiomer obtained by chiral HPLC separation (Scheme 1), hCB2R-CHO, [3H]WIN55.2212-2.
[4] abbreviates: hCB2R-CHO homogenates, displacement of [3H]WIN55.2212-2.
Where [5] appears, read: hCB1R-CHO homogenates, displacement of [3H]SR141716A, read-out: CB1R Ki.

Several values for one entry are separate records, joined by “and”; a condition that tells them apart may be missing. Equal values may be shown once. Entries after “also recorded” stand apart in the source; their conditions may differ. Read-outs that look alike come from different tables or passages of the source.

T3 sequence (P21554 whole entry): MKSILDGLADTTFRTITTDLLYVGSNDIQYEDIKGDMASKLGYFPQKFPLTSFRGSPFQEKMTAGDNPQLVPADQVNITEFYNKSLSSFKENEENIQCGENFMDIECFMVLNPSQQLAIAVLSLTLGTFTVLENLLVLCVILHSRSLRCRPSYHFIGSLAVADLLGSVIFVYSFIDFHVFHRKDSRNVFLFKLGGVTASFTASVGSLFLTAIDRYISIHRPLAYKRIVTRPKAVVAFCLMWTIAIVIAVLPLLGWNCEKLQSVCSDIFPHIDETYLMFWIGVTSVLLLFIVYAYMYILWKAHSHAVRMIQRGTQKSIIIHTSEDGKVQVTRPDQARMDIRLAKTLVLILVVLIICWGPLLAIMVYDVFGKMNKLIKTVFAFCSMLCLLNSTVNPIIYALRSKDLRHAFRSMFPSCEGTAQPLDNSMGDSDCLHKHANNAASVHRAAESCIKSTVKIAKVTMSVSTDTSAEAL
T2 sequence (P34972 whole entry): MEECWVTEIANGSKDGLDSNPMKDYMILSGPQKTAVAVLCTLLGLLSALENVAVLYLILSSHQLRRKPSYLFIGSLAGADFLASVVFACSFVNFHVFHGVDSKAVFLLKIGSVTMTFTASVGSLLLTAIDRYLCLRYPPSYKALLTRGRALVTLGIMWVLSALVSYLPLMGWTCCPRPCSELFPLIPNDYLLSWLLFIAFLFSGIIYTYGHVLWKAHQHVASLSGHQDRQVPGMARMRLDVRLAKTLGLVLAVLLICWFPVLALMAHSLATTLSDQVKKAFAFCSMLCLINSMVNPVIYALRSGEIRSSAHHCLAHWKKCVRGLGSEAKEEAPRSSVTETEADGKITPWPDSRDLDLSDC
T1 sequence (P34972 whole entry D80N): as the sequence (P34972 whole entry) above, with D80N counted along it

With `[2H]C([2H])([18F])C([2H])([2H])C([2H])([2H])C([2H])([2H])n1c(=O)c(C(=O)NC23CC4CC(CC(C4)C2)C3)cc2cccnc21` [[^18F]LU13], the KiCB1R/KiCB2R in the data set with CB2R (setting [1]) was greater than 1000. The Ki at CB2R (setting [2]) is 0.6 nM. Besides, at hCB2R(D80N), the “TAC peak SUV in target region” value was 3.6.

Consider `CC1(C)Cc2ccc(C#N)cc2[C@@H]1NC(=O)c1cc2cc(F)ccc2[nH]1` [Compound (–)-6, (R)-N-(6-Cyano-2,2-dimethyl-2,3-dihydro-1H-inden-1-yl)-5-fluoro-1H-indole-2-carboxamide], for which the “selectivity over CB1R (factor)” value at hCB2R (CB2R over CB1R) was greater than 300. Besides, the Ki on hCB2R (compound obtained by enantioselective synthesis (Scheme 2), hCB2R-CHO, [3H]WIN55.2212-2) was 3.53 nM; on hCB2R (setting [3]) it was 2.1 nM and 2.19 nM; at CB2R (reported value, read-out: CB2R Ki), 0.24 nM; on hCB1R (compound obtained by enantioselective synthesis (Scheme 2), hCB1R-CHO, [3H]SR141716A, read-out: CB1R Ki), 965 nM; at hCB1R (enantiomer obtained by chiral HPLC separation (Scheme 1), hCB1R-CHO, [3H]SR141716A, read-out: CB1R Ki), 827 nM. Besides, on hCB2R, the “CB2R binding affinity, in words” value was “binding affinity in the same range”.

For `CC1(C)Cc2ccc(C#N)cc2[C@@H]1NC(=O)c1cc2ccc(F)cc2[nH]1` [Compound 19B, (R)-N-(6-Cyano-2,2-dimethyl-2,3-dihydro-1H-inden-1-yl)-6-fluoro-1H-indole-2-carboxamide], the Ki was 15.9 nM at hCB2R (setting [4]) and greater than 1000 nM on hCB1R (setting [5]).

On to `[2H]C([2H])([18F])C([2H])([2H])C([2H])([2H])OC(=O)C(CC)(CC)NC(=O)c1ccc(N2CC(OC)C2)c(OC[C@H]2C[C@@H]2CO)n1` [[^18F]RoSMA-18-d6], for which the KiCB1R/KiCB2R in the data set on CB2R (setting [1]) is listed as greater than 10000. Besides, the Ki on CB2R (setting [2]) is 0.8 nM.

Consider `Cc1c(C(=O)N[C@H]2c3cc(C#N)ccc3CC2(C)C)[nH]c2ccc(F)cc12` [Compound 19F, (R)-N-(6-Cyano-2,2-dimethyl-2,3-dihydro-1H-inden-1-yl)-5-fluoro-3-methyl-1H-indole-2-carboxamide], for which the “CB2R binding affinity, in words” value at hCB2R was “deleterious effect on the binding affinity”. For the same compound, the figures for the Ki at hCB2R (setting [4]) and on hCB1R (setting [5]) were 336 nM and greater than 100 nM, respectively.

As for `CC1(C)Cc2ccc(OCCF)cc2[C@@H]1NC(=O)c1cc2cc(F)ccc2[nH]1` [Compound 21A, (R)-5-Fluoro-N-(6-(2-fluoroethoxy)-2,2-dimethyl-2,3-dihydro-1H-inden-1-yl)-1H-indole-2-carboxamide], the “CB2R binding affinity, in words” value at hCB2R is recorded as “slightly reduced affinity”. Besides, the figures for the Ki on hCB2R (setting [4]) and on hCB1R (setting [5]) were 50 nM and greater than 100 nM, respectively.

Turning to `CC1(C)Cc2ccc(C#N)cc2[C@@H]1NC(=O)c1nc2cc(F)ccc2[nH]1` [Compound 19G, (R)-N-(6-Cyano-2,2-dimethyl-2,3-dihydro-1H-inden-1-yl)-5-fluoro-1H-benzo[d]imidazole-2-carboxamide], at hCB2R, the “CB2R binding affinity, in words” value is listed as “high CB2R affinity”. The Ki on hCB2R (setting [4]) was 7.18 nM; on hCB1R (setting [5]) it was greater than 100 nM.

On to `CC1(C)Cc2ccc(OCCCF)cc2[C@@H]1NC(=O)c1cc2cc(F)ccc2[nH]1` [Compound 21B, (R)-5-Fluoro-N-(6-(3-fluoropropoxy)-2,2-dimethyl-2,3-dihydro-1H-inden-1-yl)-1H-indole-2-carboxamide], for which the “CB2R binding affinity, in words” value at hCB2R is reported as “slightly reduced affinity”. For the same compound, the values for the Ki at hCB2R (setting [4]) and at hCB1R (setting [5]) were 78.1 nM and greater than 1000 nM, respectively.

For “(R)-N-(6-Cyano-2,2-dimethyl-2,3-dihydro-1H-inden-1-yl)-6-fluoro-1H-indole-2-carboxamide [Compound 19C]”, the Ki is 6.49 nM at hCB2R (setting [4]) and greater than 1000 nM on hCB1R (setting [5]).

With `CC1(C)Cc2ccc(C#N)cc2C1NC(=O)c1cc2cc(F)ccc2[nH]1` (stereo not drawn) [Compound (+)-6], the Ki at hCB2R (setting [3]) and on hCB1R (setting [5]) was greater than 1000 nM each time. Moreover, on hCB2R, the “CB2R binding affinity, in words” value was “inactive; also recorded: no binding”.

As for `CC1(C)Cc2ccc(C(N)=O)cc2[C@@H]1NC(=O)c1cc2cc(F)ccc2[nH]1` [Compound 21C, (R)-N-(6-Carbamoyl-2,2-dimethyl-2,3-dihydro-1H-inden-1-yl)-5-fluoro-1H-indole-2-carboxamide], the Ki at hCB2R (setting [4]) and on hCB1R (setting [5]) was greater than 1000 nM each time.

In the case of `CC1(C)Cc2ccc(C#N)cc2[C@@H]1NC(=O)c1cc2cc(F)ccc2s1` [Compound 19H, (R)-N-(6-Cyano-2,2-dimethyl-2,3-dihydro-1H-inden-1-yl)-5-fluorobenzo[b]thiophene-2-carboxamide], the “CB2R binding affinity, in words” value at hCB2R was “high CB2R affinity”. Moreover, the Ki at hCB2R (setting [4]) is 6.98 ± 3.43 nM; at hCB1R (setting [5]), greater than 100 nM.

With `CC1(C)Cc2ccc(C#N)cc2C1NC(=O)c1cc2cc(F)ccc2[nH]1` (racemic) [Compound (±)-6, (rac)-N-(6-Cyano-2,2-dimethyl-2,3-dihydro-1H-inden-1-yl)-5-fluoro-1H-indole-2-carboxamide], the values for the Ki at hCB2R (setting [4]) and on hCB1R (setting [5]) were 3 nM and 842 nM, respectively.

For the compound `O=C(NC12CC3CC(CC(C3)C1)C2)c1cc2cc(F)ccc2[nH]1` [Compound 21E, N-(Adamantan-1-yl)-5-fluoro-1H-indole-2-carboxamide], the “CB2R binding affinity, in words” value at hCB2R was “loss of CB2R binding”. In addition, the Ki at hCB2R (setting [4]) and on hCB1R (setting [5]) was greater than 1000 nM each time.

On to `CC12CCC(C1)C(C)(C)C2NC(=O)c1cc2cc(F)ccc2[nH]1` (stereo not shown) [Compound 21D], for which the “CB2R binding affinity, in words” value on hCB2R is on record as “loss of CB2R binding”. Further, the Ki at hCB2R (setting [4]) and on hCB1R (setting [5]) was greater than 1000 nM in each case.

On to `CC1(C)Cc2ccc(C#N)cc2[C@@H]1NC(=O)c1cc2c(F)cccc2[nH]1` [Compound 19A, (R)-N-(6-Cyano-2,2-dimethyl-2,3-dihydro-1H-inden-1-yl)-4-fluoro-1H-indole-2-carboxamide], for which the Ki was 3.41 nM on hCB2R (setting [4]) and greater than 1000 nM on hCB1R (setting [5]).

As to `CC1(C)Cc2ccc(C#N)cc2[C@@H]1NC(=O)c1cc2cc(OCCF)ccc2[nH]1` [Compound 19D, (R)-N-(6-Cyano-2,2-dimethyl-2,3-dihydro-1H-inden-1-yl)-5-(2-fluoroethoxy)-1H-indole-2-carboxamide], on hCB2R, the “CB2R binding affinity, in words” value is recorded as “slightly decreased the affinity”. In addition, the Ki at hCB2R (setting [4]) is 29.9 ± 3.39 nM; at hCB1R (setting [5]) it was greater than 1000 nM.

On to `CC1(C)C(C(=O)c2cn(CCC[18F])c3ccccc23)C1(C)C` [[^18F]DM102], for which the KiCB1R/KiCB2R in the data set with CB2R (setting [1]) is listed as 440. Besides, the Ki on CB2R (setting [2]) was 7.8 nM.

As to `CC1(C)Cc2ccc(C#N)cc2[C@@H]1NC(=O)c1cc2cc(OCCCF)ccc2[nH]1` [Compound 19E, (R)-N-(6-Cyano-2,2-dimethyl-2,3-dihydro-1H-inden-1-yl)-5-(3-fluoropropoxy)-1H-indole-2-carboxamide], the “CB2R binding affinity, in words” value at hCB2R was “slightly decreased the affinity”. The Ki is 15.6 ± 3.85 nM on hCB2R (setting [4]); greater than 100 nM at hCB1R (setting [5]); greater than 1000 nM at hCB1R (supplement, formula strings sheet, read-out: CB1RKi).
